Like-named read-outs stand apart in the source and are kept apart here. Blank lines part the entries; values can stand above or below the compound they belong to.
Assays:
[1] = Cell viability in primary rat dorsal root ganglia (DRG); format: cell-based
in vitro [2] = details: human
in vitro [3] = details: human; remark: listed apart in the source
[4] = Metabolic stability in liver microsomes: Mouse CD1; format: in vitro ADME; details: 1 μM compound, 0.3 mg/mL protein, NADPH, 37° C., read-out: Mouse CD1 Liver Microsome Stability Half-life
Full length Human HDAC6 = molecular target: T1, Full length Human HDAC6 (Homo sapiens, UniProt Q9UBN7); details: for Selectivity (6 v 8) (fold): ratio of HDAC8 IC50/HDAC6 IC50
T1 sequence (Q9UBN7 1-1215): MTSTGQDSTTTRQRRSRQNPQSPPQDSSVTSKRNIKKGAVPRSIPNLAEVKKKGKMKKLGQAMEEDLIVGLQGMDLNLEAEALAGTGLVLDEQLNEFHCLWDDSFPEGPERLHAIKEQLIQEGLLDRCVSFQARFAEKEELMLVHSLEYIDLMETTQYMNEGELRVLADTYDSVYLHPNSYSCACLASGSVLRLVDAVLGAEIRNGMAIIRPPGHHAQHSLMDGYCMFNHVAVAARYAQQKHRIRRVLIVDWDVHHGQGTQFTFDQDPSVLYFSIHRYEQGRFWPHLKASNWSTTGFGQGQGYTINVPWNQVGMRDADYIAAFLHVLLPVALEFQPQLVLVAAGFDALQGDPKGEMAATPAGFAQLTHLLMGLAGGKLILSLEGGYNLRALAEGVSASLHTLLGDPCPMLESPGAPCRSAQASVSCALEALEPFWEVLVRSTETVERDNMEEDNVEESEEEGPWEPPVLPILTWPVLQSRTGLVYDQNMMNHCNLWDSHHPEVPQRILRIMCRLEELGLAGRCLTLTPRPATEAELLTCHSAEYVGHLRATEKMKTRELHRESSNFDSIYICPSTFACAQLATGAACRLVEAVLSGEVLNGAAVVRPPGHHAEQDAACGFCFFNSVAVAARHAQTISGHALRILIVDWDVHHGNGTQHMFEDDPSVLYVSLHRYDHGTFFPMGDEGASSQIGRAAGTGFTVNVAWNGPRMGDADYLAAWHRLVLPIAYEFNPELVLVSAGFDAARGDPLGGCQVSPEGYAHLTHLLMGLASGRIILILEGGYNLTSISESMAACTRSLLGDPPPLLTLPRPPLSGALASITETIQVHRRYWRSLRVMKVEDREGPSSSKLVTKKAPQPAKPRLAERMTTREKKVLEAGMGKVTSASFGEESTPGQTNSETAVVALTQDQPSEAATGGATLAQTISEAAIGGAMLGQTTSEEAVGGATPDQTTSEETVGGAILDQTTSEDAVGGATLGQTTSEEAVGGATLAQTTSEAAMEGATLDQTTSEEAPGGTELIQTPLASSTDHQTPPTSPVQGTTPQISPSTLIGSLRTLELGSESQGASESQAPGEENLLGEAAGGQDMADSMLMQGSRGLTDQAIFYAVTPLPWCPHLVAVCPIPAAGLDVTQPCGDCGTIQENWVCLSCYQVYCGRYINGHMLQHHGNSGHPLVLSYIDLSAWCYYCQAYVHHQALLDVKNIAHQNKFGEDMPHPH

Human HDAC7 aa 518-end = molecular target: T2, Human HDAC7 aa 518-end (Homo sapiens, UniProt Q8WUI4)
T2 sequence (Q8WUI4 518-952 limits assumed): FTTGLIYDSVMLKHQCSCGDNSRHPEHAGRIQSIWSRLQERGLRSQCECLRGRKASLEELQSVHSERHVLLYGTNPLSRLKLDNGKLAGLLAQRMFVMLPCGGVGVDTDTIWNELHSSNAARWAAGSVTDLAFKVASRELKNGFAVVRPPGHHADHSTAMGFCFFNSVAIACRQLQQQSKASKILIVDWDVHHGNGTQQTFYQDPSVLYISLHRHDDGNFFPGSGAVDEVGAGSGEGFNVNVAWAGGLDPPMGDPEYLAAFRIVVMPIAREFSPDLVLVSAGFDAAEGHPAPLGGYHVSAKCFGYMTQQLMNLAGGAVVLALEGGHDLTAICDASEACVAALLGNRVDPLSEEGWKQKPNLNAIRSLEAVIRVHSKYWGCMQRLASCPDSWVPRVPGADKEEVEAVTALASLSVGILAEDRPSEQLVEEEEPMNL

Full length Human HDAC8 = molecular target: T3, Full length Human HDAC8 (Homo sapiens, UniProt Q9BY41)
T3 sequence (Q9BY41 1-377): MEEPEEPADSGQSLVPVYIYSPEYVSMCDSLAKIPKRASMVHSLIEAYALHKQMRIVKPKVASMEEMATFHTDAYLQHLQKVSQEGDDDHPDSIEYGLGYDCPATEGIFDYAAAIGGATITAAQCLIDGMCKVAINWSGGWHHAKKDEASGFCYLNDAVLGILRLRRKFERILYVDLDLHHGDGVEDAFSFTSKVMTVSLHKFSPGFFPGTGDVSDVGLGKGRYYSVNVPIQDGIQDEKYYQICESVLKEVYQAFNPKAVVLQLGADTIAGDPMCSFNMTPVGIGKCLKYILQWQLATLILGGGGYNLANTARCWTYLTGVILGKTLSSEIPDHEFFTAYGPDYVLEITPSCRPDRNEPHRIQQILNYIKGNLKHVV

Full length Human HDAC10 = molecular target: T4, Full length Human HDAC10 (Homo sapiens, UniProt Q969S8)
T4 sequence (Q969S8 1-669): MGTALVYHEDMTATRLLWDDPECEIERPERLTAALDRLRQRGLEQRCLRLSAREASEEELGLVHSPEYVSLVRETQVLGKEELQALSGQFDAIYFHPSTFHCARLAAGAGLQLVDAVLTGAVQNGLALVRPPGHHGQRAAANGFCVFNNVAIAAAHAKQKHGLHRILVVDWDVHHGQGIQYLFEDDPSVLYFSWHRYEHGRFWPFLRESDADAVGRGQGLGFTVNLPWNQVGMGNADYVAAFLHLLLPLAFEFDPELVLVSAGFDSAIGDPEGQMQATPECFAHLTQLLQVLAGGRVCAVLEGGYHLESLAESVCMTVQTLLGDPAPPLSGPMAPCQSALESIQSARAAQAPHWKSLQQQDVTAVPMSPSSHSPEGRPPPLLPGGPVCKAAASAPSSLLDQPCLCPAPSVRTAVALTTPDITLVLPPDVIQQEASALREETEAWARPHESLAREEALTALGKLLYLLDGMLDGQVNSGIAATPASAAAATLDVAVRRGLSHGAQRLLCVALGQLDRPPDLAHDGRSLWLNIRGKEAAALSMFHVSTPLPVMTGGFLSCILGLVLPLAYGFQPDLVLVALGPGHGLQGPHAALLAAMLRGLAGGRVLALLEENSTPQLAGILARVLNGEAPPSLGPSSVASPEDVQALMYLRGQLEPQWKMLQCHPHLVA

[5] = Metabolic stability in liver microsomes: Mouse BL6; format: in vitro ADME; details: 1 μM compound, 0.3 mg/mL protein, NADPH, 37° C., read-out: Mouse BL6 Liver Microsome Stability Half-life
[6] = Plasma protein binding assay (Rapid Equilibrium Dialysis): mouse; format: in vitro ADME; design: dose or concentration left out as unconfirmed; details: pH 7.4, RED, 5 hours at 37° C.
[7] = Plasma stability assay: mouse; format: in vitro ADME; details: 10 μM, 37° C.
[8] = tested on: tubulin acetylation (acTubK40) in undifferentiated SH-SY5Y cells; assay: Tubulin acetylation in cells (Western immunoblot); format: cell-based; details: Homo sapiens, 4 hours, acetylTubulin/Tubulin ratio
Method: (§1) Compound EC50 Determination for Tubulin- and Histone H3 Acetylation in Cells
(§2) Estimation of the EC50 for exemplary compounds to alter target protein acetylation in undifferentiated SH-SY5Y cells was performed using standard Western immunoblotting methods. […] SH-SY5Y cells were grown to 90% confluency on sterile cell growth plates. 10 mM compound stocks prepared in DMSO and two-fold serial dilutions were prepared from the stock and applied to cells to achieve a 12-point concentration range in cell media from an upper limit of 10 μM to a lower limit of DMSO [zero compound].
(§3) Cells were incubated under normal growth conditions (37° C., 5% CO2) in the presence of compound for 4 hours, then media was aspirated and cells were rinsed two times with 1×DPBS with calcium and magnesium warmed to 37° C. Cells were frozen directly on the plates on a bed of dry ice for 5 min, then stored at −80° C. until protein extraction.
(§4) Protein extraction was performed in RIPA buffer (50 mM Tris-HCL pH 8.0, 150 mM NaCl, 0.5% sodium deoxycholate, 0.1% sodium dodecyl sulfate, 1% NP-40) supplemented with Pierce protease inhibitor mini tables (Thermofisher cat #A32953) exactly as described by the manufacturer. After thawing the plate on a bed of wet ice for 10 minutes, lysis buffer was added to each well (e.g. 100 μL per well of a 24-well plate) and cells scraped from the bottom of each well. Lysates were then sonicated over ice (40% power, 30 pulses of 1 second on, 2 seconds off), centrifuged at 16,000 g for 10 min at 4° C., and the clarified supernatant saved. Protein concentration was determined by BCA assay and at least 3 μg prepared per lane by combining lysate supernatant aliquot with 1/3 total volume of 3× gel loading buffer containing DTT (NEB Cat. #B7703S), heating for 5 minutes at 95° C., briefly centrifuging and then loading on an SDS-PAGE gel.
(§5) Proteins were resolved on a 4-20% Tris-Glycine gel and transferred to PVDF membrane using an iBlot2 dry transfer system. The membrane was then blocked for at least 30 minutes at room temperature in TBST containing 5% milk or 5% bovine serum albumin, then incubated overnight at 4° C. with a single primary antibody from the following table:
(§6) Following primary antibody incubation, membranes were washed, incubated in secondary antibody, washed and incubated in ECL prime western blotting detection reagent (Amersham #RPN223) with membrane exposure and ECL signal capture in a LI-COR Odyssey Imaging system. […] Subsequent densitometry of immunoreactive bands was performed using the ImageStudio software and Microsoft Excel resulting in the following ratios: acetylTubulin/Tubulin and acetyl histone H3K9/histone H3. Raw ratios were uploaded to GraphPad Prism v7.0 with EC50 values modeled using the variable slope equation for log-transformed data [log(agonist) vs response in Prism].

[9] = tested on: histone H3 acetylation (acH3K9) in undifferentiated SH-SY5Y cells; assay: Histone H3 acetylation in cells (Western immunoblot); format: cell-based; details: Homo sapiens, 4 hours, acetyl histone H3K9/histone H3 ratio
Method: as §1, §2, §3, §4, §5, §6

[10] = In vivo assessment of brain penetration in mice (IV 1 mg/kg, plasma and brain levels); details: mouse, BL/6 mice

SMILES: O=C(CCCCCCC(=O)Nc1ccccc1)NO [Vorinostat]
- CC50 at 72 h [1]: 0.39 µM
- viability at 4 h, 30 µM (in vitro [2]): 117 ± 7.5%
- viability at 48 h, 30 µM (in vitro [3]): 40.3 ± 1.8%

- half-life at 1 μM [4]: 7.1 min
- IC50 (Full length Human HDAC6): 0.001 to 0.1 µM
- Selectivity (6 v 8) (fold) (Full length Human HDAC6; Table 1, number): 291.4 fold
- Selectivity (6 v 8) (fold) (Full length Human HDAC6; Table 1, range class): IV (IV: >100-1000)
- IC50 (Full length Human HDAC6; read-out: In vitro enzymatic IC50, HDAC Paralog 6, Table 2): 0.001 to 0.1 µM
- IC50 (Human HDAC7 aa 518-end): 1 to 10 µM
- IC50 (Full length Human HDAC8): 1 to 10 µM
- IC50 (Full length Human HDAC8; read-out: In vitro enzymatic IC50, HDAC Paralog 8, Table 2): 1 to 10 µM
- IC50 (Full length Human HDAC10): 10 to 100 µM
SMILES: O=C(NO)c1cc(F)c2c(c1)CN(CC13CC4CC(CC(C4)C1)C3)C2 [compound 33]

- half-life at 1 μM [5]: 78.5 min
- fraction unbound at 5 h [6]: 0.062
- Mouse Plasma Stability (% Remaining at 120 min) [7]: 43.8%
- EC50 [8]: 0.1 µM
- EC50 [9]: > 10 µM
- concentration at 15 min ([10]; brain, 15 min, read-out: Mouse Brain Conc (μM) at 15 min): 0.15 µM
- concentration at 60 min ([10]; brain, 60 min, read-out: Mouse Brain Conc (μM) at 60 min): 0.03 µM
- concentration at 15 min ([10]; plasma, 15 min, read-out: Mouse Plasma Conc (μM) at 15 min): 0.21 µM
- concentration at 60 min ([10]; plasma, 60 min, read-out: Mouse Plasma Conc (μM) at 60 min): 0.05 µM
- Kp at 15 min ([10]; brain and plasma, brain:plasma, 15 min, read-out: Mouse B:P at 15 min): 0.72
- Kp at 60 min ([10]; brain and plasma, brain:plasma, 60 min, read-out: Mouse B:P at 60 min): 0.6
- IC50 (Full length Human HDAC6): 0.001 to 0.1 µM
- Selectivity (6 v 8) (fold) (Full length Human HDAC6; Table 1, number): 51 fold
- Selectivity (6 v 8) (fold) (Full length Human HDAC6; Table 1, range class): III (III: >10-100)
- IC50 (Full length Human HDAC8): 0.1 to 1 µM
SMILES: O=C(NO)c1ccc(CN2CCc3c([nH]c4ccccc34)C2)c(F)c1 [compound 46]
